Results from PubChem BioAssay AID1845199 (Molecular Pharmacology Branch, DTP, NCI, 2023).

Test system: 556581-035-R-J1 tumor spheroid viability, % test/control
Assay: Anticancer human tumor 556581-035-R-J1 patient-derived ovarian carcinoma cell line growth inhibition
Details: spheroids with HUVEC and MSC; for viability, T/C: stronger effect = lower value
How it was run: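 Complex spheroids of malignant cells with endothelial cells and mesenchymal stem cells; agents alone or combined, from near clinical Cmax (or 10 microM if unknown) down in half-log steps, 0.25% DMSO final.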

[1] = curve of first compound, second compound 0.003 µM
[2] = curve of first compound, second compound 0.00949 µM
[3] = curve of first compound, second compound 0.03 µM
[4] = curve of first compound, second compound 0.0949 µM
[5] = curve of first compound, second compound 0.3 µM
[6] = second compound 0.003 µM, first compound 0.0316 µM
[7] = second compound 0.003 µM, first compound 0.1 µM
[8] = second compound 0.003 µM, first compound 0.316 µM
[9] = second compound 0.003 µM, first compound 1 µM
[10] = second compound 0.003 µM, first compound 3.16 µM
[11] = second compound 0.003 µM, first compound 10 µM
[12] = second compound 0.00949 µM, first compound 0.0316 µM
[13] = second compound 0.00949 µM, first compound 0.1 µM
[14] = second compound 0.00949 µM, first compound 0.316 µM
[15] = second compound 0.00949 µM, first compound 1 µM
[16] = second compound 0.00949 µM, first compound 3.16 µM
[17] = second compound 0.00949 µM, first compound 10 µM
[18] = second compound 0.03 µM, first compound 0.0316 µM
[19] = second compound 0.03 µM, first compound 0.1 µM
[20] = second compound 0.03 µM, first compound 0.316 µM
[21] = second compound 0.03 µM, first compound 1 µM
[22] = second compound 0.03 µM, first compound 3.16 µM
[23] = second compound 0.03 µM, first compound 10 µM
[24] = second compound 0.0949 µM, first compound 0.0316 µM
[25] = second compound 0.0949 µM, first compound 0.1 µM
[26] = second compound 0.0949 µM, first compound 0.316 µM
[27] = second compound 0.0949 µM, first compound 1 µM
[28] = second compound 0.0949 µM, first compound 3.16 µM
[29] = second compound 0.0949 µM, first compound 10 µM
[30] = second compound 0.3 µM, first compound 0.0316 µM
[31] = second compound 0.3 µM, first compound 0.1 µM
[32] = second compound 0.3 µM, first compound 0.316 µM
[33] = second compound 0.3 µM, first compound 1 µM
[34] = second compound 0.3 µM, first compound 3.16 µM
[35] = second compound 0.3 µM, first compound 10 µM
[36] = curve of first compound, second compound 30 pM
[37] = curve of first compound, second compound 94.9 pM
[38] = curve of first compound, second compound 0.0003 µM
[39] = curve of first compound, second compound 0.000949 µM
[40] = second compound 30 pM, first compound 0.0316 µM
[41] = second compound 30 pM, first compound 0.1 µM
[42] = second compound 30 pM, first compound 0.316 µM
[43] = second compound 30 pM, first compound 1 µM
[44] = second compound 30 pM, first compound 3.16 µM
[45] = second compound 30 pM, first compound 10 µM
[46] = second compound 94.9 pM, first compound 0.0316 µM
[47] = second compound 94.9 pM, first compound 0.1 µM
[48] = second compound 94.9 pM, first compound 0.316 µM
[49] = second compound 94.9 pM, first compound 1 µM
[50] = second compound 94.9 pM, first compound 3.16 µM
[51] = second compound 94.9 pM, first compound 10 µM
[52] = second compound 0.0003 µM, first compound 0.0316 µM
[53] = second compound 0.0003 µM, first compound 0.1 µM
[54] = second compound 0.0003 µM, first compound 0.316 µM
[55] = second compound 0.0003 µM, first compound 1 µM
[56] = second compound 0.0003 µM, first compound 3.16 µM
[57] = second compound 0.0003 µM, first compound 10 µM
[58] = second compound 0.000949 µM, first compound 0.0316 µM
[59] = second compound 0.000949 µM, first compound 0.1 µM
[60] = second compound 0.000949 µM, first compound 0.316 µM
[61] = second compound 0.000949 µM, first compound 1 µM
[62] = second compound 0.000949 µM, first compound 3.16 µM
[63] = second compound 0.000949 µM, first compound 10 µM
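Further: spheroids exposed to compounds for 7 days before viability read.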

Compound: COc1cc(C)[nH]c(=O)c1CN1CCc2c(Cl)cc(C(OC)C3COC3)c(Cl)c2C1=O (centres undefined) + CC[C@@]1(O)C(=O)OCc2c1cc1n(c2=O)Cc2cc3c(CN(C)C)c(O)ccc3nc2-1
- IC50 [1]: > 10 µM
- IC50 [2]: > 10 µM
- IC50 [3]: > 10 µM
- IC50 [4]: < 0.0316 µM
- IC50 [5]: < 0.0316 µM
- viability, T/C [6]: 93.5%
- viability, T/C [7]: 103%
- viability, T/C [8]: 98.2%
- viability, T/C [9]: 101%
- viability, T/C [10]: 101%
- viability, T/C [11]: 94.9%
- viability, T/C [12]: 90%
- viability, T/C [13]: 92.1%
- viability, T/C [14]: 85.8%
- viability, T/C [15]: 87.1%
- viability, T/C [16]: 91.5%
- viability, T/C [17]: 86.3%
- viability, T/C [18]: 64.9%
- viability, T/C [19]: 65.1%
- viability, T/C [20]: 64.3%
- viability, T/C [21]: 65.3%
- viability, T/C [22]: 67.9%
- viability, T/C [23]: 65.4%
- viability, T/C [24]: 45.3%
- viability, T/C [25]: 48.7%
- viability, T/C [26]: 49.9%
- viability, T/C [27]: 49.2%
- viability, T/C [28]: 47.9%
- viability, T/C [29]: 47.1%
- viability, T/C [30]: 13.2%
- viability, T/C [31]: 9.94%
- viability, T/C [32]: 12.4%
- viability, T/C [33]: 12%
- viability, T/C [34]: 10.7%
- viability, T/C [35]: 11.1%

Compound: Cn1nnc2c(C(N)=O)ncn2c1=O
- viability, T/C (compound 1 µM): 103% [middle of 10 runs]
- viability, T/C (compound 10 µM): 104% [middle of 10 runs]
- viability, T/C (compound 31.6 µM): 107% [middle of 10 runs]
- IC50 (compound alone, run of 10/17/2019): > 100 µM

Compound: COc1ccc([C@@H](O)c2cc(-c3ncnc4cc(N5CCOCC5)ccc34)c(F)cc2Cl)nn1 + COc1cc2c(cc1O)CCNC21CSC2c3c(OC(C)=O)c(C)c4c(c3C(COC1=O)N1C(O)C3Cc5cc(C)c(OC)c(O)c5C(C21)N3C)OCO4
- IC50 [36]: 1.77 µM
- IC50 [37]: 1.96 µM
- IC50 [38]: 2.06 µM
- IC50 [39]: < 0.0316 µM
- IC50 [1]: < 0.0316 µM
- viability, T/C [40]: 97.4%
- viability, T/C [41]: 102%
- viability, T/C [42]: 88.2%
- viability, T/C [43]: 60.5%
- viability, T/C [44]: 40.1%
- viability, T/C [45]: 32.8%
- viability, T/C [46]: 104%
- viability, T/C [47]: 102%
- viability, T/C [48]: 90.5%
- viability, T/C [49]: 61.6%
- viability, T/C [50]: 42.7%
- viability, T/C [51]: 32.3%
- viability, T/C [52]: 99.5%
- viability, T/C [53]: 104%
- viability, T/C [54]: 86.8%
- viability, T/C [55]: 67.8%
- viability, T/C [56]: 40%
- viability, T/C [57]: 22.4%
- viability, T/C [58]: 42.1%
- viability, T/C [59]: 36.5%
- viability, T/C [60]: 12.3%
- viability, T/C [61]: 0.69%
- viability, T/C [62]: 0.37%
- viability, T/C [63]: 1.03%
- viability, T/C [6]: 0.59%
- viability, T/C [7]: 0.87%
- viability, T/C [8]: 0.65%
- viability, T/C [9]: 0.7%
- viability, T/C [10]: 0.82%
- viability, T/C [11]: 0.98%

Compound: CC1COCCN1c1cc(-c2ccnn2C)c2ccnc(-c3ccn[nH]3)c2n1 (centres undefined) + CC[C@@]1(O)C(=O)OCc2c1cc1n(c2=O)Cc2cc3c(CN(C)C)c(O)ccc3nc2-1
- IC50 [1]: 0.317 µM
- IC50 [2]: 0.141 µM
- IC50 [3]: < 0.0316 µM
- IC50 [4]: < 0.0316 µM
- IC50 [5]: < 0.0316 µM
- viability, T/C [6]: 85.3%
- viability, T/C [7]: 66.5%
- viability, T/C [8]: 50.2%
- viability, T/C [9]: 39%
- viability, T/C [10]: 33.7%
- viability, T/C [11]: 30.8%
- viability, T/C [12]: 68.9%
- viability, T/C [13]: 53.5%
- viability, T/C [14]: 40.9%
- viability, T/C [15]: 38.1%
- viability, T/C [16]: 31.6%
- viability, T/C [17]: 29.2%
- viability, T/C [18]: 42%
- viability, T/C [19]: 35.3%
- viability, T/C [20]: 35.5%
- viability, T/C [21]: 35.1%
- viability, T/C [22]: 29.8%
- viability, T/C [23]: 28.4%
- viability, T/C [24]: 21.6%
- viability, T/C [25]: 20%
- viability, T/C [26]: 20.5%
- viability, T/C [27]: 26.5%
- viability, T/C [28]: 27.1%
- viability, T/C [29]: 27%
- viability, T/C [30]: 4.51%
- viability, T/C [31]: 5.08%
- viability, T/C [32]: 6.11%
- viability, T/C [33]: 10.5%
- viability, T/C [34]: 16.3%
- viability, T/C [35]: 15.6%

Compound: CC1COCCN1c1cc(-c2ccnn2C)c2ccnc(-c3ccn[nH]3)c2n1 (centres undefined) + COc1cc2c(cc1O)CCNC21CSC2c3c(OC(C)=O)c(C)c4c(c3C(COC1=O)N1C(O)C3Cc5cc(C)c(OC)c(O)c5C(C21)N3C)OCO4
- IC50 [36]: 0.786 µM
- IC50 [37]: 0.426 µM
- IC50 [38]: 0.0592 µM
- IC50 [39]: < 0.0316 µM
- IC50 [1]: < 0.0316 µM
- viability, T/C [40]: 93.9%
- viability, T/C [41]: 74.6%
- viability, T/C [42]: 59.1%
- viability, T/C [43]: 48.5%
- viability, T/C [44]: 38.2%
- viability, T/C [45]: 34.4%
- viability, T/C [46]: 73.7%
- viability, T/C [47]: 62.5%
- viability, T/C [48]: 51.8%
- viability, T/C [49]: 44.2%
- viability, T/C [50]: 38%
- viability, T/C [51]: 34.4%
- viability, T/C [52]: 53.6%
- viability, T/C [53]: 45.7%
- viability, T/C [54]: 43.1%
- viability, T/C [55]: 43.8%
- viability, T/C [56]: 37.6%
- viability, T/C [57]: 32.3%
- viability, T/C [58]: 7.45%
- viability, T/C [59]: 4.92%
- viability, T/C [60]: 5.53%
- viability, T/C [61]: 6.39%
- viability, T/C [62]: 3.31%
- viability, T/C [63]: 0.59%
- viability, T/C [6]: 0.82%
- viability, T/C [7]: 0.83%
- viability, T/C [8]: 1.19%
- viability, T/C [9]: 0.43%
- viability, T/C [10]: 0.43%
- viability, T/C [11]: 0.72%
